In paper PMC5656322, “BAK1 is involved in AtRALF1-induced inhibition of root cell expansion” (PLoS Genetics, 2017):
Where no end group is shown, it is not given here.

Legend:
[1] = tested on: cytosolic Ca^2+ in Arabidopsis seedlings; assay: Ca^2+ mobilization assay (apoaequorin luminescence); assay type: in vivo, Arabidopsis thaliana
Experimental: The cytoplasmic Ca^2+ assay was performed in Arabidopsis seedlings as described previously. Changes in Ca^2+ levels were measured using an Arabidopsis line homozygous for the single insertion of a transgene encoding a cytoplasmically expressed apoaequorin protein driven by the constitutive promoter 35S [53], here denoted Wt-aeq. Wt-aeq plants were crossed with bak1-3 mutants, and T3 generation plants overexpressing apoaequorin and containing a T-DNA insertion in the BAK1 gene, named bak1-3-aeq, were selected and evaluated using semi-quantitative RT-PCR with specific primers (S1 Table). Arabidopsis seedlings were grown in plates for 4 days. A single seedling was transferred into each well of a 96-well white microplate (Thermo Labsystems) containing 200 μl of medium supplemented with […] coelenterazine cp (Biotium) and incubated in the dark at 24 °C for 16 h. Each well containing a single seedling received recombinant AtRALF1 or acridinium-labeled AtRALF1 at a final concentration of 5, 10 or 100 nM as indicated. The resulting luminescence emission was monitored using a microplate reader (Biotec ELx 800) and 20 time-points for approximately 160 s. The experiments were repeated at least three times using independent biological replicates. The data shown are from one representative experiment.

[2] = tested on: AtPRP3, AtHRGP2, CPD and DWF4 genes; assay: Expression of hormone-responsive genes (RT-PCR, qRT-PCR); assay type: in vivo, Arabidopsis thaliana; settings: bak1-1, bak1-3, bak1-4 mutants, 1 μM, 1 h
Experimental: Arabidopsis plants were grown for 10 days in vertical plates and then treated in liquid medium containing 1 μM AtRALF1 for 1 h at room temperature. Control plants were incubated under identical conditions in a peptide-free medium. The total RNA was isolated from the roots of Arabidopsis plants using TRIzol reagent according to the manufacturer’s instructions (Life Technologies). The cDNA was synthesized using the ImProm-II Reverse Transcription System (Promega) and 1 μg of RNA. An aliquot of cDNA (1.5 μl) was used as the template in the PCR reaction, which was performed for 29 cycles, unless indicated otherwise, using gene-specific primers (S1 Table). The glyceraldehyde 3-phosphate dehydrogenase (GAPDH) gene was used as an internal control. All experiments were repeated at least three times with independent biological replicates. The data shown are from one representative experiment.
The qRT-PCR analysis was performed using 10-fold-diluted cDNA, Maxima SYBR Green Rox/qPCR Master Mix (Thermo Scientific) and a StepOne Real-Time PCR System (Applied Biosystems). The glyceraldehyde 3-phosphate dehydrogenase (GAPDH) gene was used as an internal control. […] The threshold cycle (CT) was determined by the instrument, and the ΔΔCT method was used to calculate the fold change in each gene. […] Three replicates were analyzed for each biological sample, and two biological samples were analyzed. […]

[3] = tested on: microsomal fractions from the roots of Arabidopsis; assay: Binding assay with acridinium-labeled AtRALF1, microsomal fractions; parameters: species or system Arabidopsis thaliana
Experimental: (A) Whole seedlings (5 days old) were treated for 15 min with acriAtRALF1 (acriR1), acriR1 and an excess of unlabeled AtRALF34 (R34), RALF1(9–49) [(R-9-49)], or AtRALF1 (R1), as indicated. The values are the mean ± SD of two measurements (5 seedlings each). (B) Microsomal fractions from wild-type and bak1 mutants were incubated for 15 min with acriAtRALF1 (acriR1), with acriR1 and an excess of unlabeled RALF1(9–49) [(R-9-49)], or with AtRALF1 (R1), as indicated. The values are the mean ± SD of two measurements. The proportions of labeled: unlabeled proteins are shown in parentheses. Single and triple asterisks indicate P < 0.1 and P < 0.01 (Student’s t test).
Arabidopsis seedlings were grown for 5 days on vertical plates. Roots were homogenized in extraction buffer [300 mM sucrose, 100 mM Tris-HCl pH 7.5, 25 mM EDTA, 25 mM NaF, 1 mM Na2MoO4, 1 mM PMSF and protease inhibitor cocktail (Roche), adjusted to pH 6.2], and the homogenate was spun at 2,000 x g for 10 min at 4 °C. The supernatant was recovered and centrifuged at 100,000 x g for 50 min at 4 °C to precipitate the microsomal pellet. The pellet was resuspended in the extraction buffer plus 0.5% Triton-X. Seedlings or microsomal fractions were placed in 200 μl of medium and incubated with 7 nM acridinium-labeled peptide (acriAtRALF1 or acriAtRALF34) and different concentrations of AtRALF1, AtRALF34 or RALF1(9–49) for 15–20 min at 4 °C on a shaker. After incubation, the seedlings or microsomal fractions were washed three times with the same medium. Unless indicated otherwise, five entire seedlings and approximately 10 ng of microsomal fractions were used per treatment. The resulting luminescence emissions from the acridinium were measured using a microplate reader (Biotec ELx 800) at 2 s after injecting 50 μl of a solution containing 20 mM H2O2 in 0.1 M NaOH. These experiments were repeated at least three times using independent biological replicates. Duplicates were used for each concentration or treatment. The data shown are from one representative experiment.

BAK1 [4] = assay: BAK1 phosphorylation assay, anti-phosphothreonine; assay type: in vivo, Arabidopsis thaliana; settings: 20 min
Experimental: (§1) Transgenic plants pBAK1:BAK1-6xHA were grown in vertical plates for 10–15 days. The plants were treated with 0.1 μM BL, 2 μM RALF1(9–49), 1 μM, 2 μM or 10 μM AtRALF1 for 20 min. The roots were isolated, and the microsomal fractions were obtained as described above. The microsomal fractions were incubated with anti-HA beads (EZview Red Anti-HA Affinity Gel, Sigma) for 2 h at 4 °C to immunoprecipitate the BAK1 protein. The unbound materials were removed by washing 3 times. Proteins were separated by SDS/PAGE and further analyzed by protein blotting using anti-HA (Thermo Scientific), or anti-phosphothreonine (Novus Biologicals), or anti-phosphoserine (Novus Biologicals) antibodies.

BAK1 [5] = assay: BAK1 phosphorylation assay, anti-phosphoserine; assay type: in vivo, Arabidopsis thaliana; settings: pBAK1:BAK1-6xHA roots; 1, 2 and 10 μM, 20 min
Experimental: as §1

BAK1 gene = settings: Arabidopsis plants; ref [10]; cited from earlier work
Excerpt: It has been previously shown through microarray experiments that the treatment of Arabidopsis plants with AtRALF1 causes BAK1 gene induction by approximately 1.56-fold. Our data are consistent with that previous observation and add a new gene to the list of AtRALF1-inducible genes. […] The fact that AtRALF1 peptide and BL treatment both induce BAK1 gene expression provides further evidence that BAK1 ...

AtRALF1: root-specific RALF isoform in Arabidopsis; recombinant peptide hormone produced in E. coli (ATTKYISYQSLKRNSVPCSRRGASYYNCQNGAQANPYSRGCSKIARCRS; ends and bridges not checked; cysteine pairing not given here)
increase in cytoplasmic Ca^2+ ([1]; acriAtRALF1 vs unlabeled AtRALF1, apoaequorin seedlings (S17A Fig)): induced an increase in cytoplasmic Ca^2+
cytosolic calcium increase ([1]; bak1-3-aeq plants, 10 and 100 nM): cytosolic calcium increase similar to plants expressing the apoaequorin gene in a wild-type background
up-regulation of AtRALF1-inducible genes [2]: None of the AtRALF1-inducible genes were up-regulated
share of AtRALF1 binding due to BAK1 ([3]; microsomal fractions from roots): approximately 15%
acriAtRALF1 binding reduced to, of the total ([3]; microsomal fractions of wild-type and bak1, 10-fold excess of AtRALF1): approximately 30%
acriAtRALF1 binding reduced to, of the total binding ([3]; microsomal fractions of wild-type and bak1, 100- or 500-fold excess of AtRALF1): approximately 60%
further increase of BAK1 Thr phosphorylation (BAK1 [4]; 10 μM): did not result in further increases in phosphorylation
upper concentration of dose-dependent BAK1 Thr phosphorylation (BAK1 [4]; pBAK1:BAK1-HA roots): up to 2 μM
BAK1 phosphorylation in threonine residues (BAK1 [4]; pBAK1:BAK1-HA roots, AtRALF1 1, 2, 10 μM, BL 0.1 μM): increase in BAK1 phosphorylation in the threonine residues similar to the increase resulting from the treatment of the seedlings with BL
BAK1 serine phosphorylation (BAK1 [5]): no changes were detected
BAK1 gene induction (microarray) (BAK1 gene): approximately 1.56 -fold
